PMC5382548 (Scientific Reports, 2015)

What was measured:
[1] = test system: UTR-2 G4 in the 5′UTR of KRAS mRNA; assay: FRET melting assay, UTR-2 RNA G4; type: binding; conditions: G4 0.2 μM, ligand 1 μM
Experimental: (§1) Two compounds 2d and 3e were selected and evaluated for their ability to stabilize the 32-mer sequence in the NHE of the human KRAS promoter (KRAS32R)[12], two G4 motifs in the 5′UTR of KRAS mRNA (UTR-1 and UTR-2)[24] and a 21-mer DNA G4 from the human telomeric sequence (F21T). The KRAS32R sequence has been described as forming two G4 structures which exist in equilibrium. One sequence folds into a G4 (Q1) with a Tm of ~55°C that is disrupted on increasing the temperature and then, the full-length 32-mer sequence folds into a new G4 (Q2, Tm of ~72°C)[13]. In our assay, the KRAS32R sequence (in the presence or absence of IQcs) folded in a single G4 structure (Tm ≈ 54°C), as shown by the single inflection for the first derivative of the FRET melting data (Sup. Inf.; Figure S4). This monophasic behaviour was also observed in the presence of TMPyP4[13].
(§2) Oligonucleotide sequences were purchased from Eurofins MWG Synthesis GmbH, Germany or STAB VIDA Genomics Lab, Caparica, Lisbon, Portugal. […]
(§3) The ability of indolo[3,2-c]quinolines to stabilize DNA sequences was investigated using a Fluorescence Resonance Energy Transfer (FRET) assay as reported elsewhere.

[2] = test system: 26ds (ds26) (DNA, duplex) CAATCGGATCGAATTCGATCCGATTG; assay: spectrofluorimetric titration, one-site Hill slope fit; conditions: 60 mM K+, K-cacodylate pH 7.4, 25 °C, 1 μM compound, apparent, SD ≤ 0.2 × 10^6
[3] = test system: KRAS21R (FRET-labelled) (DNA, G4) AGGGCGGTGTGGGAAGAGGGA; assay: FRET melting; conditions: 60 mM K+; K-cacodylate pH 7.4; 0.2 μM DNA, 1 μM compound; SD ≤ 0.2
[4] = test system: KRAS32R G4; assay: FRET melting assay, KRAS32R G4; type: binding, human; conditions: G4 0.2 μM, ligand 1 μM
Experimental: as §1, §2, §3

[5] = test system: UTR-1 G4 in the 5′UTR of KRAS mRNA; assay: FRET melting assay, UTR-1 RNA G4; type: binding; conditions: G4 0.2 μM, ligand 1 μM
Experimental: as §1, §2, §3

[6] = test system: MiaPaCa2 (pancreatic); assay: SRB short-term cytotoxicity assay, MiaPaCa2; type: cell-based; conditions: Homo sapiens, MIA PaCa-2, 96 h
Experimental: Short-term anti-proliferative assays were carried out by two different assays using a panel of human cancer and non-malignant human cell lines. […] The transformed human embryonic kidney cell line HEK293T (wt KRAS) was sensitive to all tested drugs, including TMPyP4, a cationic porphyrin established as a G4 ligand, as well as the anticancer drug 5-fluorouracil (5-FU).
Human cell lines, breast carcinoma (MCF7), lung carcinoma (A549), pancreatic cancer (MIA PaCa2, Panc-1), immortalised telomerase-negative human lung fibroblast (ALT) and normal human lung fibroblast (WI-38), were all purchased from American Type Cell Culture (ATCC). Cell lines were maintained in appropriate medium supplemented with 10% fetal bovine serum (Invitrogen, UK), 2 mM L-glutamine (Invitrogen, Netherlands), and other components as specified by the suppliers. All cell lines were maintained at 37°C, 5% CO2, and routinely passaged. Short-term growth inhibition was measured using the SRB assay as described previously[43] […]
After electrophoretic transfer onto nitrocellulose membranes, immunoblots were blocked with 5% milk solution, and next incubated overnight at 4 °C with primary mouse monoclonal antibody reactive to KRAS/p53 (#sc-30/sc-126; Santa Cruz Biotechnology Inc., Santa Cruz, CA, USA). […] Steady-state protein levels were expressed as mean ±SEM from at least three independent experiments.

[7] = test system: KRAS32R (DNA, G4) AGGGCGGTGTGGGAAGAGGGAAGAGGGGGAGG; assay: FRET melting; conditions: 60 mM K+; K-cacodylate pH 7.4; 0.2 μM DNA, 1 μM compound; SD ≤ 0.2
[8] = test system: UTR-2 (RNA, G4) UGUGGGAGGGGCGGGUCUGGG; assay: FRET melting; conditions: 60 mM K+; K-cacodylate pH 7.4; 0.2 μM RNA, 1 μM compound; SD ≤ 0.2
[9] = test system: UTR-1 (RNA, G4) GCGGCGGCGGAGG; assay: FRET melting; conditions: 60 mM K+; K-cacodylate pH 7.4; 0.2 μM RNA, 1 μM compound; SD ≤ 0.2

| Compound | ΔTm UTR-2 [1] [°C] | Ka ([2]; Hill 2.5) [M⁻¹] | binding [3] | ΔTm KRAS32R [4] [°C] | ΔTm UTR-1 [5] [°C] | IC50 [6] [nM] | ΔTm [7] [°C] | ΔTm [8] [°C] | ΔTm [9] [°C] | Ka ([2]; Hill 1.5) [M⁻¹] |
| --- | --- | --- | --- | --- | --- | --- | --- | --- | --- | --- |
| CCN(CC)CCCNc1ccc2c(c1)[nH]c1c2c[n+](C)c2ccc(NCCCN(CC)CC)cc12.[Cl-] [3e] | 9.9 | 3.2e+06 | yes | 17.0 | 15.7 | 1980 | 17.0 | 9.9 | 15.7 |  |
| Cn1cc2c3ccccc3nc-2c2cc(Br)ccc21 [2a, 2-bromo-5-methyl-indolo[3,2-c]quinoline] |  |  | weak |  |  | 2200 |  |  |  |  |
| CCN(CC)CCCNc1ccc2c(c1)c1[nH]c3ccccc3c1c[n+]2C [2d] | 2.0 |  |  | 10.7 | 5.1 |  | 10.7 | 2.0 | 5.1 | 2.8e+06 |
